# PMC11811690 (Angewandte Chemie (International Ed. in English), 2024)
# System: Rif-resistant Mtb isolate (clinical isolate, rpoB mutant S531L)
# Assay type: cell-based, Mycobacterium tuberculosis
row,SMILES,"MIC Rif-resistant Mtb isolate, turbidity read-out"
1,CC[C@H]1/C=C(\C)[C@@H](O)C/C=C/C=C(\CNc2nc(COc3ccccc3)cs2)C(=O)O[C@H]([C@@H](C)O)C/C=C(C)/C=C(\C)[C@@H]1O[C@@H]1OC(C)(C)[C@@H](OC(=O)C(C)C)[C@H](O)[C@@H]1O [compound 10],8 to 16 µg/mL
2,CC[C@H]1/C=C(\C)[C@@H](O)C/C=C/C=C(\CNCc2nnc(-c3ccccc3)o2)C(=O)O[C@H]([C@@H](C)O)C/C=C(C)/C=C(\C)[C@@H]1O[C@@H]1OC(C)(C)[C@@H](OC(=O)C(C)C)[C@H](O)[C@@H]1O [compound 16],4 to 8 µg/mL
3,CC[C@H]1/C=C(\C)[C@@H](O)C/C=C/C=C(\CNc2nc(-c3ccccc3)cs2)C(=O)O[C@H]([C@@H](C)O)C/C=C(C)/C=C(\C)[C@@H]1O[C@@H]1OC(C)(C)[C@@H](OC(=O)C(C)C)[C@H](O)[C@@H]1O [compound 13],8 to 16 µg/mL
4,CC[C@H]1/C=C(\C)[C@@H](O)C/C=C/C=C(\CNc2nc3ccccc3s2)C(=O)O[C@H]([C@@H](C)O)C/C=C(C)/C=C(\C)[C@@H]1O[C@@H]1OC(C)(C)[C@@H](OC(=O)C(C)C)[C@H](O)[C@@H]1O [compound 9],8 to 16 µg/mL
5,CC[C@H]1/C=C(\C)[C@@H](O)C/C=C/C=C(\CNc2ccc(C#N)cc2)C(=O)O[C@H]([C@@H](C)O)C/C=C(C)/C=C(\C)[C@@H]1O[C@@H]1OC(C)(C)[C@@H](OC(=O)C(C)C)[C@H](O)[C@@H]1O [compound 24],16-32
6,CC[C@H]1/C=C(\C)[C@@H](O)C/C=C/C=C(\CNCc2nnc(-c3ccc(C(F)(F)F)cc3)o2)C(=O)O[C@H]([C@@H](C)O)C/C=C(C)/C=C(\C)[C@@H]1O[C@@H]1OC(C)(C)[C@@H](OC(=O)C(C)C)[C@H](O)[C@@H]1O [compound 23],4-8
7,CC[C@H]1/C=C(\C)[C@@H](O)C/C=C/C=C(\CN(C)Cc2nnc(-c3ccccc3)o2)C(=O)O[C@H]([C@@H](C)O)C/C=C(C)/C=C(\C)[C@@H]1O[C@@H]1OC(C)(C)[C@@H](OC(=O)C(C)C)[C@H](O)[C@@H]1O [compound 7],8 to 16 µg/mL
8,CC[C@H]1/C=C(\C)[C@@H](O)C/C=C/C=C(\CNCc2nnc(-c3ccc(OC)c(OC)c3Cl)o2)C(=O)O[C@H]([C@@H](C)O)C/C=C(C)/C=C(\C)[C@@H]1O[C@@H]1OC(C)(C)[C@@H](OC(=O)C(C)C)[C@H](O)[C@@H]1O [compound 18],4 to 8 µg/mL
9,CC[C@H]1/C=C(\C)[C@@H](O)C/C=C/C=C(\CNc2ccc(C#N)cn2)C(=O)O[C@H]([C@@H](C)O)C/C=C(C)/C=C(\C)[C@@H]1O[C@@H]1OC(C)(C)[C@@H](OC(=O)C(C)C)[C@H](O)[C@@H]1O [compound 25],16-32
